Results from ChEMBL document CHEMBL5042512 (Eur J Med Chem, 2022).

Tests used:
Format in all cases: functional, cell-based
MGC-803 = experiment: Antiproliferative activity against human MGC-803 cells assessed as cell growth inhibition measured after 48 hrs by CCK8 assay; details: MGC-803, 48 h
KYSE-450 = experiment: Antiproliferative activity against human KYSE-450 cells assessed as cell growth inhibition measured after 48 hrs by CCK8 assay; details: KYSE-450, 48 h
HCT-116 = experiment: Antiproliferative activity against human HCT-116 cells assessed as cell growth inhibition measured after 48 hrs by CCK8 assay; details: HCT-116, 48 h

SMILES | IC50 (MGC-803) [µM] | IC50 (KYSE-450) [µM] | IC50 (HCT-116) [µM]
COc1ccc(CN(C(=O)CSC(=S)N2CCN(C(=O)OC(C)(C)C)CC2)c2ccc(C)cc2)cc1 | > 20 | > 20 | > 20
COc1ccc(CN(C(=O)CSC(=S)N2CCN(Cc3ccc(C(C)(C)C)cc3)CC2)c2cc(OC)c(OC)c(OC)c2)cc1 | 5.39 | 2.14 | 6.89
COc1ccc(CN(C(=O)CSC(=S)N2CCN(C(=O)OC(C)(C)C)CC2)c2ccc(Cl)cc2)cc1 | > 20 | > 20 | > 20
COc1ccc(CN(C(=O)CSC(=S)N2CCOCC2)c2cc(OC)c(OC)c(OC)c2)cc1 | 2.37 | 7.22 | 4.13
CCN1CCN(CC(=O)N(Cc2ccc(OC)cc2)c2cc(OC)c(OC)c(OC)c2)CC1 | > 20 | 16.1 | > 20
COc1cc(NC(=O)CSC(=S)N2CCN(C(=O)OC(C)(C)C)CC2)c(Cc2ccccc2)c(OC)c1OC | > 20 | > 20 | 16
COc1ccc(CN(C(=O)CN2CCOCC2)c2cc(OC)c(OC)c(OC)c2)cc1 | 16.9 | 18.9 | > 20
COc1ccc(CN(C(=O)CSc2nc3ccccc3o2)c2cc(OC)c(OC)c(OC)c2)cc1 |  | 0.84 | 3.28
COc1ccc(CN(C(=O)CSC(=S)N2CCN(C(=O)OC(C)(C)C)CC2)c2cc(OC)c(OC)c(OC)c2)cc1F | 4.87 | 2.41 | 8.21
COc1ccc(CN(C(=O)CSC(=S)N2CCc3ccccc3C2)c2cc(OC)c(OC)c(OC)c2)cc1 | 5.94 | > 20 | 15.9
COc1ccc(CN(C(=O)CSC(=S)N2CCc3ccccc32)c2cc(OC)c(OC)c(OC)c2)cc1 | 8.41 | 6.94 | 7.71
COc1cc(N(Cc2ccc(Cl)cc2)C(=O)CSC(=S)N2CCN(C(=O)OC(C)(C)C)CC2)cc(OC)c1OC | 12.9 | 11.9 | 8.49
COc1ccc(CN(C(=O)CSC(=S)N2CCN(C(=O)OC(C)(C)C)CC2)c2ccccc2)cc1 | > 20 | > 20 | > 20
COc1cc(N(Cc2ccc(Br)cc2)C(=O)CSC(=S)N2CCN(C(=O)OC(C)(C)C)CC2)cc(OC)c1OC | 12.4 | 10.7 | 11.4
COc1ccc(CN(C(=O)CN2CCN(C(C)=O)CC2)c2cc(OC)c(OC)c(OC)c2)cc1 | 12.8 | 10.8 | > 20
COc1ccc(CN(C(=O)CSC(=S)N2CCCc3cc(C)ccc32)c2cc(OC)c(OC)c(OC)c2)cc1 | 6.49 | 5.21 | 5.23
COc1ccc(CN(C(=O)CSC(=S)N2CCN(C(=O)OC(C)(C)C)CC2)c2cc(OC)c(OC)c(OC)c2)cc1[N+](=O)[O-] | 0.88 | 0.81 | 0.98
COc1ccc(CN(C(=O)CSC(=S)N2CCN(C)CC2)c2cc(OC)c(OC)c(OC)c2)cc1O | 0.86 | 0.76 | 0.81
COc1ccc(CN(C(=O)CSC(=S)N2CCCC2)c2cc(OC)c(OC)c(OC)c2)cc1 | > 20 | 13.8 | 4.97

SMILES | IC50 (MGC-803) [µM] | IC50 (KYSE-450) [µM] | IC50 (HCT-116) [µM]
COc1ccc(CN(C(=O)CSC(=S)N2CCN(C(=O)OC(C)(C)C)CC2)c2cc(OC)c(OC)c(OC)c2)cc1OC | > 20 | > 20 | > 20
COc1ccc(CN(C(=O)CSC(=S)N2CCN(C(C)=O)CC2)c2cc(OC)c(OC)c(OC)c2)cc1 | 0.48 | 0.37 | 1.37
CCN1CCN(C(=S)SCC(=O)N(Cc2ccc(OC)cc2)c2cc(OC)c(OC)c(OC)c2)CC1 | 9.89 | 3.07 | 7.7
COc1ccc(CN(C(=O)CSC(=S)N2CCN(C(=O)OC(C)(C)C)CC2)c2cc(OC)c(OC)c(OC)c2)cc1C | > 20 | > 20 | > 20
COc1ccc(CN(C(=O)CN2CCN(C(=O)OC(C)(C)C)CC2)c2cc(OC)c(OC)c(OC)c2)cc1 | 9.5 | 8.17 | 18.1
COc1ccc(CN(C(=O)CSC(=S)N2CCN(C(=O)OC(C)(C)C)CC2)c2cc(OC)c(OC)c(OC)c2)cc1N=[N+]=[N-] | 0.81 | 0.84 | 0.78
COc1ccc(CN(C(=O)CSC(=S)N2CCN(C(=O)OC(C)(C)C)CC2)c2ccc(OC)cc2)cc1 | > 20 | > 20 | > 20
COc1ccc(CN(C(=O)CSC(=S)N2CCN(C(=O)OC(C)(C)C)CC2)c2ccc(Br)cc2)cc1 | > 20 | > 20 | > 20
CCN1CCN(C(=S)SCC(=O)N(Cc2ccc(OC)c(O)c2)c2cc(OC)c(OC)c(OC)c2)CC1 | 0.38 | 0.32 | 0.53
COc1ccc(CN(C(=O)CSC(=S)N2CCN(C(=O)OC(C)(C)C)CC2)c2cc(OC)c(OC)c(OC)c2)cc1N | 0.184 | 0.208 | 0.352
COc1ccc(CN(C(=O)CSC(=S)N2CCN(C(C)=O)CC2)c2cc(OC)c(OC)c(OC)c2)cc1O | 0.31 | 0.21 | 0.78
COc1cc(N(Cc2ccc(C)cc2)C(=O)CSC(=S)N2CCN(C(=O)OC(C)(C)C)CC2)cc(OC)c1OC | 16.7 | > 20 | > 20
COc1ccc(CN(C(=O)CSC(=S)N2CCCc3cc(OC)ccc32)c2cc(OC)c(OC)c(OC)c2)cc1 | 8.21 | 5.53 | > 20
COc1ccc(CN(C(=O)CSC(=S)N2CCc3cc(OC)ccc32)c2cc(OC)c(OC)c(OC)c2)cc1 | 11.7 | 10.2 | 9.81
COc1ccc(CN(C(=O)CSC(=S)N2CCN(C(=O)OC(C)(C)C)CC2)c2cc(OC)c(OC)c(OC)c2)cc1Br | 3.71 | 1.85 | 9.71
COc1ccc(CN(C(=O)CSC(=S)N2CCN(C(=O)OC(C)(C)C)CC2)c2cc(OC)c(OC)c(OC)c2)cc1 | 0.31 | 0.25 | 0.62
COc1ccc(CN(C(=O)CSC(=S)N2CCN(C)CC2)c2cc(OC)c(OC)c(OC)c2)cc1 | 1.28 | 1.25 | 2.64
COc1cc2c(c(OC)c1OC)-c1ccc(OC)c(=O)cc1[C@@H](NC(C)=O)CC2 [COLCHICINE] | 0.09 | 0.22 | 
COc1ccc(CN(C(=O)CSC(=S)N2CCc3cc(Br)ccc32)c2cc(OC)c(OC)c(OC)c2)cc1 | > 20 | > 20 | 8.06
